Assays:
[1] = target: T1, human recombinant adrenergic α2B receptor (Homo sapiens, UniProt P18089); assay: Adrenergic α2B radioligand binding ([3H]Rauwolscine); conditions: read-out: Adrenergic (0.1 μM) a2B, percent inhibition of specific binding; compound at 0.1 μM; 2.5 nM [3H]Rauwolscine
T1 construct: expressed in transfected cells; host or cells: CHO-K1
T1 sequence (P18089 1-450): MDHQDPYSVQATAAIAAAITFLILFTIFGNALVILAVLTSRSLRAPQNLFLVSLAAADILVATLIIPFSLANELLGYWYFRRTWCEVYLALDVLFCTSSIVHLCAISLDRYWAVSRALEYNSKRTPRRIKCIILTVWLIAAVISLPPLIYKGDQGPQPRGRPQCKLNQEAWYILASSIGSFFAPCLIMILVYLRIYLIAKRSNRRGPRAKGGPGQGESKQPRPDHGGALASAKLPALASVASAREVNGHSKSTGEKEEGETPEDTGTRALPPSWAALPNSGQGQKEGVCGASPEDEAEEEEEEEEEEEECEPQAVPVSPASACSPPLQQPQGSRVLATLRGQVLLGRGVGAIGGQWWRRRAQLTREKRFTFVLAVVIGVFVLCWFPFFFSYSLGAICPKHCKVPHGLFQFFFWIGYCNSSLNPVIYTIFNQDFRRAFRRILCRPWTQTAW
Method: To evaluate in radioligand binding assays the activity of compounds of the invention, human recombinant adrenergic α2B receptor expressed in Chinese hamster ovary (CHO) K1 cells (Uhlen, S. et al, Eur. J. Pharmacol. 343(1):93, 1998) in a modified Tris-HCl buffer (50 mM Tris-HCl, pH 7.4, 12.5 mM MgCl2, 1 mM EDTA, 0.2% BSA) was used. Compounds of the invention were incubated with 2.5 nM [^3H]Rauwolscine for 60 min at 25° C. Non-specific binding was estimated in the presence of 10 μM Prazosin. Receptor proteins were filtered and washed, the filters were then counted to determine [^3H]Rauwolscine specifically bound. […] Compounds of the invention were tested in this biochemical assay and percent inhibition of specific binding was determined.

[2] = target: T2, human recombinant adrenergic α1D receptor (Homo sapiens, UniProt P25100); assay: Adrenergic α1D radioligand binding ([3H]Prazosin); conditions: read-out: Adrenergic (0.1 μM) a1D, percent inhibition of specific binding; compound at 0.1 μM; 0.6 nM [3H]Prazosin
T2 construct: expressed in transfected cells; host or cells: HEK-293
T2 sequence (P25100 1-572): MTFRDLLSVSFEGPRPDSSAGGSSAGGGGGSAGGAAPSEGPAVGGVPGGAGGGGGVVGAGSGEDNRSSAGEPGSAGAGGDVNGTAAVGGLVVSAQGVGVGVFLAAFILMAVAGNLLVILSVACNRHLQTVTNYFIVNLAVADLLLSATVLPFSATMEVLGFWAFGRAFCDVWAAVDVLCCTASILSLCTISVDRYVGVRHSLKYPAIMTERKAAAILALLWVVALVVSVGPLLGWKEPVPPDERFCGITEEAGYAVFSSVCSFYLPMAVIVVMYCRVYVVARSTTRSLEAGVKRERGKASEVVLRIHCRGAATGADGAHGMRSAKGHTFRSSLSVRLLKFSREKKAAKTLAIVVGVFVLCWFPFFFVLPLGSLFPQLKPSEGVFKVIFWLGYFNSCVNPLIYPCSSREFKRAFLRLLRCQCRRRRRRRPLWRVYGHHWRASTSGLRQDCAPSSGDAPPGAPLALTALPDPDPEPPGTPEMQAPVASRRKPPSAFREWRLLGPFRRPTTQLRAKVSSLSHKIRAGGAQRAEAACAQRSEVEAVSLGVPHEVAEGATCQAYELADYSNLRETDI
Method: Compounds of invention were incubated with 0.6 nM [^3H]Prazosin for 60 min at 25° C. Non-specific binding was estimated in the presence of 10 μM phentolamine. Receptor proteins were filtered and washed, the filters were then counted to determine [^3H]Prazosin specifically bound. […] Compounds of the invention were tested in this biochemical assay and percent inhibition of specific binding was determined.

SMILES | inhibition at 0.1 µM [1] [%] | inhibition at 0.1 µM [2] [%]
Cc1ccc2c(c1)c1c(n2-c2cscc2-c2ccc(C)s2)CCN(C)C1 [Compound No. 79] | 106 | 
CNC(=O)c1cccc(-c2ccc(-n3c4c(c5cc(C)ccc53)CN(C)CC4)nc2)c1 [Compound No. 143, 3-(6-(2,8-dimethyl-3,4-dihydro-1H-pyrido[4,3-b]indol-5(2H)-yl)pyridin-3-yl)-N-methylbenzamide] | 77 | 72
